For 1 compound, inhibition of growth results are on record in patent publication US7989004B2, “Antitubercular extracts of Salicornia brachiata” (Council of Scientific and Industrial Research, priority 2004, dated 2011).

The subject of the assay is M. tuberculosis H37Rv. In words: BACTEC method of in-vitro screening (growth index, radiometric 7H12 broth). As to conditions: 100 μg/mL. It is filed as cell-based.

As for `OC[C@H]1O[C@@](CO)(O[C@H]2O[C@H](CO)[C@@H](O)[C@H](O)[C@H]2O)[C@@H](O)[C@@H]1O` [sucrose], the inhibition of growth entry is “no inhibition”.
